# Experimental data reported in patent US20200009130A1, “OCULAR DISTRIBUTION AND PHARMACOKINETICS OF LIFITEGRAST FORMULATIONS” (SARcode Bioscience Inc., priority 2016, published 2020).
# Key:
# [1] = in vivo; parameters: species or system New Zealand Red/White F1 Cross rabbits; details: female, New Zealand Red/White F1 Cross, rabbit
# Method: In this experiment, female pigmented rabbits were assigned to receive one of two formulations of lifitegrast (#1 and #2) for 5 consecutive days. Each treatment group consisted of 25 rabbits. Animals received a single topical ocular dose of lifitegrast in each eye b.i.d.
# (except on study day 5), approximately 12 hours apart (±1 hour), at a target dose level of 1.75 mg/eye/dose (35 μL/eye/dose). On study day 5, animals were dosed in the morning only. Treatment groups 1 and 2 were dosed on separate days. The in-life portion of the study was conducted in May 2014. This study adhered to the ARVO Statement for the Use of Animals in Ophthalmic and Vision Research and all procedures in the study were in compliance with the Animal Welfare Act Regulations (9 CFR 3).
# Fifty female New Zealand Red/White F1 Cross rabbits from Covance Research Products (Denver, Pa., USA) were used in the study. The animals were acclimated to study conditions for 13 days before dose administration. At dosing, the animals weighed 3177 to 4271 g and were at least 6 months of age. Animals were housed individually, in suspended stainless steel cages, with food and water ad libitum, and under a 12-hour light/12-hour darkness cycle throughout the study. Animals were not randomized, but were assigned to animal numbers based on overall health and the results of predose ophthalmic examinations. Ophthalmic examinations were performed by a board-certified veterinary ophthalmologist once at baseline (pre dose) using a Kowa hand-held slit-lamp biomicroscope and an indirect ophthalmoscope with a condensing lens to ensure the study animals were healthy and had no ocular findings pre-treatment.
# Formulations for the study that would be representative of the clinical material (confirmed by analytical data) were prepared at Covance Laboratories Inc. In each formulation, lifitegrast was added to dose vehicle while stirring, and pH adjusted with hydrochloric acid (HCl) and/or sodium hydroxide (NaOH). The formulation was stirred until a clear solution was obtained, filtered with a 0.22 μm filter (Millipore® Millex-GV, 0.22 μm, Durapore® PVDF) and stored at approximately 5° C. Analysis of the formulations was performed by Almac Sciences, Souderton, Pa., USA, and concentrations were measured as 49.4 and 49.3 mg/mL for formulations #1 and #2, respectively.
# Formulation #1: dose vehicle consisted of sterile water for injection, sodium chloride, sodium phosphate dibasic anhydrous, sodium bicarbonate, ethylenediaminetetraacetic acid (EDTA), and sodium thiosulfate pentahydrate, adjusted to a pH of 7.30 with HCl. After addition of lifitegrast (50 mg/mL), the pH was adjusted to 6.90. […]
# [2] = literature; cited from earlier work
structure (smiles),measurement,setting,value
"CS(=O)(=O)c1cccc(C[C@H](NC(=O)c2c(Cl)cc3c(c2Cl)CCN(C(=O)c2ccc4ccoc4c2)C3)C(=O)O)c1 [lifitegrast, Lifitegrast]",Cmax,[1],≤ 36 ng/g
same,Tmax,[1],15 to 60 min
same,half-life,[1]; plasma t1/2,51 min
same,half-life,[1]; t1/2,~120 min
same,safety profile in clinical trials,[2],generally well tolerated
